Assay results taken from the NIST ThermoML archive (doi:10.1021/je0301895).
Numbers after ± are expanded uncertainties.

Columns and labels:
[1] = 298.15 K; 101.33 kPa; Liquid
[2] = Solid-liquid equilibrium temperature; conditions: 101.3 kPa; Crystal
[3] = xn = mol fraction of the nth substance listed; conditions: 298.15 K, 101 kPa, Liquid

CCCCCCCCN [1-octanamine]
Conditions | Solid-liquid equilibrium temperature [K] | mass density [kg/m3]
[1] | – | 779.95 ± 0.84
[2] | 273.37 ± 0.4 | –

CCCCCCCCN [1-octanamine] + CCCCCCCCCCCO
[3]
Conditions | excess molar volume [m3/mol]
x2 = 0.0752 | -2.147e-07 ± 2.1e-08
x2 = 0.1043 | -2.984e-07 ± 2.2e-08
x2 = 0.1334 | -3.833e-07 ± 2.2e-08
x2 = 0.2069 | -5.724e-07 ± 2.3e-08
x2 = 0.3217 | -8.29e-07 ± 2.5e-08
x2 = 0.4007 | -9.437e-07 ± 2.6e-08
x2 = 0.4491 | -9.846e-07 ± 2.6e-08
x2 = 0.4941 | -1.008e-06 ± 2.6e-08
x2 = 0.5463 | -1.008e-06 ± 2.6e-08
x2 = 0.5958 | -9.803e-07 ± 2.6e-08
x2 = 0.639 | -9.391e-07 ± 2.6e-08
x2 = 0.6894 | -8.58e-07 ± 2.5e-08
x2 = 0.7458 | -7.411e-07 ± 2.4e-08
x2 = 0.7961 | -6.06e-07 ± 2.4e-08
x2 = 0.873 | -4.122e-07 ± 2.2e-08
x2 = 0.9158 | -2.804e-07 ± 2.2e-08

CCCCCCCCCCCO [1-undecanol]
Conditions | Solid-liquid equilibrium temperature [K] | mass density [kg/m3]
[1] | – | 829.34 ± 0.28
[2] | 289.63 ± 0.8 | –

CCCCCCCCCO [nonan-1-ol]
Conditions | Solid-liquid equilibrium temperature [K] | mass density [kg/m3]
[1] | – | 824.6 ± 0.28
[2] | 268.1 ± 0.4 | –

CCCCCCCCN [1-octanamine] + CCCCCCCCCCO
[3]
Conditions | excess molar volume [m3/mol]
x2 = 0.0791 | -2.401e-07 ± 2.1e-08
x2 = 0.1302 | -3.963e-07 ± 2.2e-08
x2 = 0.2056 | -6.005e-07 ± 2.4e-08
x2 = 0.2788 | -7.66e-07 ± 2.5e-08
x2 = 0.3263 | -8.612e-07 ± 2.5e-08
x2 = 0.3863 | -9.584e-07 ± 2.6e-08
x2 = 0.422 | -1.002e-06 ± 2.6e-08
x2 = 0.4623 | -1.03e-06 ± 2.6e-08
x2 = 0.5138 | -1.042e-06 ± 2.6e-08
x2 = 0.5525 | -1.039e-06 ± 2.6e-08
x2 = 0.5811 | -1.023e-06 ± 2.6e-08
x2 = 0.6153 | -9.952e-07 ± 2.6e-08
x2 = 0.6452 | -9.534e-07 ± 2.6e-08
x2 = 0.6956 | -8.646e-07 ± 2.5e-08
x2 = 0.7565 | -7.349e-07 ± 2.4e-08
x2 = 0.8463 | -4.965e-07 ± 2.3e-08
x2 = 0.9025 | -3.208e-07 ± 2.2e-08
x2 = 0.97 | -1.278e-07 ± 2.1e-08

CCCCCCCCN [1-octanamine] + CCCCCCCCO
[3]
Conditions | excess molar volume [m3/mol]
x2 = 0.043 | -1.921e-07 ± 2.1e-08
x2 = 0.13 | -4.625e-07 ± 2.3e-08
x2 = 0.2358 | -7.264e-07 ± 2.4e-08
x2 = 0.3041 | -8.581e-07 ± 2.5e-08
x2 = 0.347 | -9.393e-07 ± 2.6e-08
x2 = 0.4158 | -1.024e-06 ± 2.6e-08
x2 = 0.4571 | -1.062e-06 ± 2.6e-08
x2 = 0.5174 | -1.071e-06 ± 2.6e-08
x2 = 0.554 | -1.068e-06 ± 2.6e-08
x2 = 0.5877 | -1.052e-06 ± 2.6e-08
x2 = 0.6385 | -1.012e-06 ± 2.6e-08
x2 = 0.709 | -9.034e-07 ± 2.5e-08
x2 = 0.7589 | -8.079e-07 ± 2.5e-08
x2 = 0.875 | -5.102e-07 ± 2.3e-08
x2 = 0.929 | -3.207e-07 ± 2.2e-08
x2 = 0.992 | -7.24e-08 ± 2e-08

CCCCCCCCN [1-octanamine] + CCCCCCCCCO
[3]
Conditions | excess molar volume [m3/mol]
x2 = 0.0489 | -1.701e-07 ± 2.1e-08
x2 = 0.1572 | -4.742e-07 ± 2.3e-08
x2 = 0.2155 | -6.354e-07 ± 2.4e-08
x2 = 0.2763 | -7.661e-07 ± 2.5e-08
x2 = 0.3283 | -8.704e-07 ± 2.5e-08
x2 = 0.356 | -9.277e-07 ± 2.6e-08
x2 = 0.4125 | -1.005e-06 ± 2.6e-08
x2 = 0.4566 | -1.043e-06 ± 2.6e-08
x2 = 0.4998 | -1.055e-06 ± 2.6e-08
x2 = 0.5326 | -1.057e-06 ± 2.6e-08
x2 = 0.5732 | -1.049e-06 ± 2.6e-08
x2 = 0.6064 | -1.016e-06 ± 2.6e-08
x2 = 0.637 | -9.761e-07 ± 2.6e-08
x2 = 0.6602 | -9.511e-07 ± 2.6e-08
x2 = 0.7321 | -8.074e-07 ± 2.5e-08
x2 = 0.7905 | -6.629e-07 ± 2.4e-08
x2 = 0.8753 | -4.313e-07 ± 2.3e-08
x2 = 0.961 | -1.661e-07 ± 2.1e-08

CCCCCCCCO [octan-1-ol]
Conditions | Solid-liquid equilibrium temperature [K] | mass density [kg/m3]
[1] | – | 822.21 ± 0.28
[2] | 258.03 ± 0.4 | –

CCCCCCCCCCO [decan-1-ol]
Conditions | Solid-liquid equilibrium temperature [K] | mass density [kg/m3]
[1] | – | 826.64 ± 0.28
[2] | 278.67 ± 0.4 | –
